Assay results: patent US6787132B1, “Combined chemo-immunotherapy with liposomal drugs and cytokines” (Yissum Research Development Company of the Hebrew …, priority 1997, dated 2004)

Tests used:
Format in all cases: in vivo, BALB/c mice
[1] = test system: M109 tumor cells (lung adenocarcinoma); assay: Lung adenocarcinoma model: survival of mice injected intraperitoneally with M109 tumor cells, IL-2 in MLV; conditions: 5×10^5 M109 cells i.p. day 0, ADR or DOXIL 8 mg/kg i.v. day 7, MLV-IL-2 50,000 CU/mouse i.p. days 10, 13, 16
Experimental: B1. Lung Adenocarcinoma Model: IL-2 in MLV. Six groups of BALB/c mice were injected intraperitoneally with 5×10^5 M109 tumor cells (day 0). Free adriamycin or DOXIL®, respectively, were administered intravenously on day 7 at a dose of 8 mg/kg, and intraperitoneal cytokine treatment was initiated 3 days later. Liposomal IL-2 (formulation B; MLV DMPC/DMPG (9:1 mole ratio) liposomes containing IL-2) was given once daily (50,000 CU/mouse) on days 10, 13 and 16. Control groups received no treatment or received the IL-2 treatment alone.
(§1) Each group, consisting of 8-9 mice, was inspected for survival up to 100 days after tumor inoculation.

[2] = test system: M109 tumor cells (lung adenocarcinoma); assay: Metastatic lung adenocarcinoma model: survival of mice injected intravenously with M109 tumor cells, IL-2 in PEGylated SUV; conditions: 5×10^5 M109 cells i.v. day 0, ADR or DOXIL 8 mg/kg i.v. day 7, SSL-IL-2 50,000 CU/mouse i.v. days 11, 14, 17
Experimental: B2. Metastatic Lung Adenocarcinoma Model: IL-2 in MLV (Formulation B) and PEG-Derivatized SUV (SSL). In this experiment, BALB/c mice were injected intravenously with 5×10^5 M109 tumor cells (day 0). Free adriamycin or DOXIL ®, respectively, were administered intravenously on day 7 (8 mg/kg), followed […] by intravenous cytokine treatment. Liposomal IL-2 (Formulation A; PEGylated SUV containing IL-2) was given once daily (50,000 CU/mouse) on days 11, 14 and 17. Control groups received no treatment or received the IL-2 treatment alone.
as §1

M109 tumor cells = assay: Second, more extensive M109 study: free or liposomal adriamycin with free IL-2, SSL-IL-2 or MLV-IL-2; conditions: 5×10^5 M109 cells i.p.; ADR or DOXIL 8 mg/kg i.p. day 7; IL-2 50,000 CU/mouse i.v. days 10, 13, 16; observed up to 120 days
Experimental: In a second, more extensive study, nine groups of BALB/c mice were injected intraperitoneally with 5×10^5 M109 tumor cells. Free adriamycin or DOXIL® (8 mg/kg) were administered intraperitoneally 7 days later, followed 3 days later by intravenous cytokine treatment. The cytokine, given once daily (50,000 CU/mouse) on days 10, 13 and 16, consisted of free IL-2, IL-2 in Formulation A (Stealth® PEGylated SUV), or IL-2 in Formulation B (9:1 molar DMPC/DMPG MLV).
Each group, consisting of 8 mice, and an untreated control group of 11 mice, were inspected for survival up to 120 days after tumor inoculation.

[3] = test system: C26 colon carcinoma cells; assay: Subcutaneous colon carcinoma model (footpad), IL-2 in MLV; conditions: 10^5 C26 cells in footpad, 8 mg/kg free or liposomal adriamycin i.v. day 7, IL-2 i.p.
Experimental: B3. Subcutaneous colon carcinoma model: IL-2 in MLV. In this test, 7 groups of BALB/c mice were injected in the footpad with 10^5 C26 colon carcinoma cells.

## COc1cccc2c1C(=O)c1c(O)c3c(c(O)c1C2=O)C[C@@](O)(C(=O)CO)C[C@@H]3O[C@H]1C[C@H](N)[C@H](O)[C@H](C)O1 [ADR, adriamycin (doxorubicin)]
[1]; observed up to 100 days
  MEDIAN SURVIVAL: 42 days
[1]; survival up to 100 days
  NUMBER OF SURVIVING MICE/TOTAL: 0/8
[2]; observed up to 100 days
  MEDIAN SURVIVAL: 56 days
[2]; survival up to 100 days
  NUMBER OF SURVIVING MICE/TOTAL: 2/8
M109 tumor cells
  MEDIAN SURVIVAL: 100 days
  NUMBER OF TUMOR FREE MICE/TOTAL: 4/8
[3]; day 30
  NUMBER OF TUMOR FREE MICE, DAY 30: 0/7
[3]; day 65
  NUMBER OF TUMOR FREE MICE, DAY 65: 0/7
